# Experimental data from patent publication US9598441B2, “Therapeutic compounds and methods” (Wayne State University, priority 2011, dated 2017).
# Assays:
# [1] = test system: apoptosis of HBC cells; assay: ELISA-based DNA fragmentation apoptosis assay; assay type: cell-based, human
# Method: For apoptosis ELISA assay, 4−5×10^2 cells were seeded in 96-well plates and treated essentially as indicated in the MTT assay above. Untreated as well as treated cells were lysed, and levels of mono and oligo-nucleosomal DNA fragments in the lysates were determined by measuring optical density of each sample at 405 nm and 495 nm wavelengths. […] For TUNEL labeling, the cells were treated with various agents, fixed, labeled and photographed essentially as detailed in immuno-localization protocols described before (Zhang, L., Levi, E., Majumder, P., Yu, Y., Aboukameel, A., Du, J., Xu, H., Mohammad, R. M., Hatfield, J. S., Wali, A., Adsay, V., Majumdar, A. P. N., and Rishi, A. K. (2007) Mol. Cancer. Ther. 6(5), 1661-1672). […] Cell lysates derived from vehicle DMSO (Control) or CFM-4-treated cells were added to the wells that had immobilized fluorogenic caspase-3, caspase-8, caspase-9, or caspase-2 substrates. The fluorescence released from the activated caspase-dependent cleavage of respective substrate was detected by a plate reader at the excitation and emission wavelengths of 380 nm and 460 nm, respectively.
# CFM-4 suppresses cell growth in part by inducing apoptosis: In light of the data in FIG. 5A showing significant accumulation of CFM-4-treated cells in the sub G0 phase, and the fact that cells undergoing apoptosis often accumulate in the sub G0 fractions, it was next ascertained the extent of apoptosis stimulation by these agents by utilizing an ELISA-based DNA fragmentation assay. […] The intrinsic, mitochondria-mediated and the extrinsic, extracellular receptor-activated, apoptosis signaling pathways are transduced by activation of various caspases that promote eventual breakdown of cellular proteins, organelles and plasma membrane. […] It was next determined whether apoptosis stimulation by CFM-4 involved activation of caspases 8 or 9 or both. […] The activation of caspases in the presence of CFM-4 was further profiled by utilizing a fluorescence-based quantitative assay as detailed in methods. […]
# [2] = test system: cell cycle progression; assay: Flow-cytometric cell cycle analysis (propidium iodide); assay type: cell-based
# Method: FIGS. 5A-5D: CFM-4 suppresses cell growth in part by elevating CARP-1 and diminishing cyclin B1 levels. In panel A, cells were treated with indicated agents for noted times, labeled with propidium iodide, and sorted by flow cytometry. Histogram and table below represent cell numbers in various phases of cell cycle. In panel B, cells were treated with indicated dose of CFM-4 for noted times, in panel C, cells were either untreated (−) or treated (+) with CFM-4 for noted dose and time, while in panel D, cells were either treated with vehicle control (DMSO) or with indicated agents for noted dose and time. The cell lysates (50 μg/lane) in panels B-D were analyzed by WB for levels of CARP-1, Cyclin B1, Cdh1, APC-2, CDKIs p21^WAF1/CIP1, p27^KIP1 and actin proteins as in methods.
# CARP-1 is required for CFM-4-dependent cell growth inhibition. Because APC/C E3 ubiquitin ligase functions to regulate cell cycle and CFM-4 binds with CARP-1 to inhibit its binding with APC-2, it was next determined whether the SMIs interfere with cell cycle progression. […] The APC/C^Cdc20 E3 ubiquitin ligase regulates turnover of the mitotic cyclin B1 and Cdc20 during the G2M phase and exit to mitosis while APC/C^Cdh1 E3 ligase targets Cdc20 as well as SCF ligase to accomplish exit from mitosis and transition to G0/G1 phases. Attenuation of SCF ligase by APC/C^Cdh1, in turn, results in elevated levels of CDKIs p21^WAF1/CIP1 and p27^KIP1. […] To investigate this possibility it was determined whether CFM-4 binding with CARP-1 modulated CARP-1 levels. […] Levels of both the p21^WAF1/CIP1 and p27^KIP1 CDKIs were elevated when cells were exposed to CFM-4 for 0.5-1.0 h time periods (FIG. 5B). This may likely be due to the initial response of the cells to stress following exposure to CFM-4. […] This loss of CDKI expression could be due to attenuation of APC/C^Cdh1 activity following modest reduction in the Cdh1 levels as well as inability of CARP-1 to bind with APC-2 over prolonged periods of treatments with CFM-4. […]
SMILES,apoptosis level (DNA fragmentation ELISA) [1],cell cycle effect (flow cytometry) [2]
"COc1cccc2c1C(=O)c1c(O)c3c(c(O)c1C2=O)C[C@@](O)(C(=O)CO)C[C@@H]3O[C@H]1C[C@H](N)[C@H](O)[C@H](C)O1 [ADR, adriamycin, reference compound]",significantly elevated levels of apoptosis,induced G2M cell cycle arrest
"O=C1N(Cc2ccccc2Cl)c2ccccc2C12NN=C(c1ccccc1)S2 (stereo not drawn) [CFM-4, 1-(2-chlorobenzyl)-5′-phenyl-3′H-spiro[indoline-3,2′-[1,3,4]thiadiazol]-2-one]",significantly elevated levels of apoptosis,induced G2M cell cycle arrest
"Cc1cc(Br)cc2c1NC(=O)/C2=C1\SC(=S)NC1=O [CFM-1, (Z)-5-(5-bromo-7-methyl-2-oxoindolin-3-ylidene)-2-thioxothiazolidin-4-one]",without significant increase in apoptosis,induced G2M cell cycle arrest
